Test results as given in patent US20020169394A1, “Integrated tissue poration, fluid harvesting and analysis device, and method therefor” (priority 1993, published 2002).

Legend:
subjects left forearm = experiment: Lidocaine delivery through porated stratum corneum with ultrasound; numbness assessed by rubbing a 30 gauge wire across the test site; assay type: in vivo, human
Source text: A drawing of an illustrative delivery apparatus 300 is shown in FIG. 50, wherein the apparatus comprises a housing 304 enclosing a reservoir 308 for holding a drug-containing solution 312. The top portion of the housing comprises an ultrasonic transducer 316 for providing sonic energy to aid in transporting the drug-containing solution through micropores; 320 in the stratum corneum 324. A port 328 in the ultrasonic transducer permits application of pressure thereto for further aiding in transporting the drug-containing solution through the micropores in the stratum corneum. The delivery apparatus is applied to a selected area of an individual's skin such that it is positioned over at least one, and preferably a plurality, of micropores. An adhesive layer 332 attached to a lower portion of the housing permits the apparatus to adhere to the skin such that the drugcontaining solution in the reservoir is in liquid communication with the micropores.
Five subjects were tested for the effectiveness of drug delivery using poration together with ultrasound. The experiment used two sites on the subjects left forearm about three inches apart, equally spaced between the thumb and upper arm. The site near the thumb will be referred to as site 1 the site furthest from the thumb will be referred to as site 2. […] Site 2 was porated with 24 holes spaced 0.8 millimeters apart in a grid contained within a 1 cm diameter circle. The micropores in Site 2 were generated according to the procedure of Example 6. […] Ultrasound applications were made with a custom manufactured Zevex ultrasonic transducer assembly set in burst mode with 0.4 Volts peak to peak input with 1000 count bursts occurring at 10 Hz with a 65.4 kHz fundamental frequency, i.e., a pulse modulated signal with the transducer energized for 15 millisecond bursts, and then turned off for the next 85 milliseconds. The measured output of the amplifier to the transducer was 0.090 watts RMS.
Experiments were executed on both sites, Site 1 for 10 to 12 minute duration and Site 2 for two 5 minute duration intervals applied serially to the same site. Both sites were assessed for numbness using a scale of 10 to 0, where 10 indicated no numbness and 0 indicated complete numbness as reported by the test subjects.

[1] = system: human cadaver skin samples (stratum corneum); assay type: in vitro ADME
Method: Modulated sonic energy and chemical enhancers were tested for their ability to control transdermal flux on human cadaver skin samples. In these tests, the epidermal membrane had been separated from the human cadaver whole skin by the heat-separation method of Example 1. The epidermal membrane was cut and placed between two halves of the permeation cell with the stratum corneum facing either the upper (donor) compartment or lower (receiver) compartment. Modified Franz cells were used to hold the epidermis, as shown in FIG. 2 of U.S. Pat. No. 5,445,611. Each Franz cell consists of an upper chamber and a lower chamber held together with one or more clamps. The lower chamber has a sampling port through which materials can be added or removed. A sample of stratum corneum is held between the upper and lower chambers when they are clamped together. The upper chamber of each Franz cell is modified to allow an ultrasound transducer to be positioned within 1 cm of the stratum corneum membrane. Methylene blue solution was used as an indicator molecule to assess the permeation of the stratum corneum. A visual record of the process and results of each experiment was obtained in a time stamped magnetic tape format with a video camera and video cassette recorder (not shown). Additionally, samples were withdrawn for measurement with an absorption spectrometer to quantitate the amount of dye which had traversed the stratum corneum membrane during an experiment. Chemical enhancers suitable for use could vary over a wide range of solvents and/or cell envelope disordering compounds as noted above. The specific enhancer utilized was: ethanol/glycerol/water/glycerolmonooleate/methyl laurate in 50/30/15/2.5/2.5 volume ratios. The system for producing and controlling the sonic energy included a programmable 0-30 MHz arbitrary waveform generator (Stanford Reserach Systems Model DS345), a 20 watt 0-30 MHz amplifier, and two unfocused ultrasound immersion transducers having peak resonances at 15 and 25 MHz, respectively. […]

[2] = Site 2 porated plus ultrasound, after the second application

| visual evidence of dye flux through the stratum corneum [1] | visually detectable permeation of the stratum corneum [1] | level of dye solution in 2 ml of receiver medium (no visual indication of dye flux) ([1]; human, 5 min) | SMILES | numbness, scale of 10 to 0 (10 no numbness, 0 complete numbness) (subjects left forearm; Site 1 control, no micro-poration or sonic energy, at approximately 20 minutes) | numbness, scale of 10 to 0 (10 no numbness, 0 complete numbness) (subjects left forearm; Site 1 control: lidocaine and enhancer solution, no micro-poration or sonic energy, at 10 to 12 minutes, 5 subjects) | diameter of totally numb circle (subjects left forearm; Site 2 porated plus ultrasound, after the second 5 minute application) | diameter of numb oval pattern parallel to the forearm (subjects left forearm; [2]) [cm] | diameter of numb oval pattern perpendicular to the forearm (subjects left forearm; [2]) [cm] | numbness, scale of 10 to 0 (10 no numbness, 0 complete numbness) (subjects left forearm; Site 2 porated with 24 holes plus low level ultrasound, in the 1 cm circle containing the porations, first 5 minute application) |
| --- | --- | --- | --- | --- | --- | --- | --- | --- | --- |
| – | – | – | CCN(CC)CC(=O)Nc1c(C)cccc1C [lidocaine] | 3 | 7 to 10 | about 12 cm | 2 to 6 | 2 to 2.5 | 0 to 1 |
| No visual evidence of dye flux | no visually detectable permeation | < 0.0015 % (v/v) | CN(C)c1ccc2nc3ccc(=[N+](C)C)cc-3sc2c1 [methylene blue] | – | – | – | – | – | – |
